Columns and labels:
[1] = molecular target: T1, cellodextrin phosphorylase (CDP) (Acetivibrio thermocellus, UniProt Q93HT8); experiment: capillary electrophoresis competition assay of glucan polymerization; type: biochemical
T1 construct: gene cdp-ym4

[2] = molecular target: T1, cellodextrin phosphorylase (CDP); experiment: X-ray crystallography, […] Å; type: binding
[3] = substrate: OC[C@H]1O[C@@H](Oc2ccccc2)[C@H](O)[C@@H](O)[C@@H]1O; experiment: phosphate release assay, Michaelis-Menten fit; type: biochemical, Acetivibrio thermocellus; settings: acceptor, synthetic direction, 10 mM Glc-1-P, HEPES 50 mM pH 7.5, 21 °C

OC1OC[C@@H](O[C@@H]2OC[C@@H](O[C@@H]3OC[C@@H](O)[C@H](O)[C@H]3O)[C@H](O)[C@H]2O)[C@H](O)[C@H]1O (stereo partly drawn) [(β-1→4-Xyl)3]
capillary electrophoresis competition assay of glucan polymerization ([1]; 10 mM xylotriose vs 13.5 μM (β-1→4-Glc)6-APTS, 10 mM Glc-1-P, HEPES 50 mM pH 7.5, 40 °C, acceptor competition): suggesting binding of xylotriose to the active site of the enzyme

N[C@H]1[C@H](O[C@H]2[C@H](O)[C@@H](O)[C@H](O[C@H]3[C@H](O)[C@@H](O)C(O)O[C@@H]3CO)O[C@@H]2CO)O[C@H](CO)[C@@H](O)[C@@H]1O (stereo partly drawn) [(β-1→4-GlcN(Glc)2)]
capillary electrophoresis competition assay of glucan polymerization ([1]; 5 mM trisaccharide vs 0.5 mM (β-1→4-Glc)3-APTS, 50 mM Glc-1-P, HEPES 50 mM pH 7.6, 40 °C, acceptor competition, also an acceptor substrate): the average extension of (β-1→4-Glc)3-APTS reduced substantially

OC[C@H]1O[C@@H](O[C@H]2[C@H](O)[C@@H](O)[C@H](O[C@H]3[C@H](O)[C@@H](O)[C@H](O[C@H]4[C@H](O)[C@@H](O)C(O)O[C@@H]4CO)O[C@@H]3CO)O[C@@H]2CO)[C@H](O)[C@@H](O)[C@@H]1O (stereo partly drawn) [(β-1→4-Glc)4]
X-ray crystallography, 3.0 Å ([2]; crystal soaked with 10 mM cellohexaose, density modelled as cellotetraose, with phosphate, active site subsites −1 to +3): additional electron density in the active site cleft, which was interpreted as a cellotetraose molecule

O=P(O)(O)O [phosphate]
X-ray crystallography, 3.0 Å ([2]; crystal grown with 10 mM phosphate buffer, active site, adjacent to the glucan): interpreted as a cellotetraose molecule with an adjacent phosphate ion

O=P(O)(O)O[C@H]1O[C@H](CO)[C@@H](O)[C@H](O)[C@@H]1O [Man-1-P]
capillary electrophoresis competition assay of glucan polymerization ([1]; 10 mM Man-1-P vs 1 mM Glc-1-P and 2 μM (β-1→4-Glc)6-APTS, HEPES 50 mM pH 7.5, 40 °C, competitive with donor): Man-1-P caused a great decrease in glucan oligomer length

B1: cellodextrin phosphorylase (CDP) (Acetivibrio thermocellus) (protein)
chain: MITKVTARNNKITPVELLNQKFGNKINLGNFADAVFTDAAFKNVAGIANLPMKAPVMQVLMENCIVSKYLKQFVPDRSVCFVEEGQKFYIVLEDGQKIEVPEDVNKALKATVSDVKHWAGYLTEDGEHVIDLLKPAPGPHFYVNLLIGNRLGFKRTLQTTPKSVVDRFGRGSFRSHAATQVLATRFDMRQEENGFPANRQFYLYEDGKQIFYSALIDDNIVEATCKHSCNRTVIKYKTACNLEITRTIFLVPHKKGFPLATELQRIEIKNASDKARNLSITYTGMFGTGAVHAIFEDVTYTNVIMQSAALYNDKGEFIGITPDYYPEEFKQDTRFVTMIVRNGDEKSFPQSFCTDYNDFVGTGTLEHPAGGCNLNNKLNRKGPGFFALGAPFTVEPGKTVIIDTFTGLSSSKDNENYSDAVMLRELDNLLRYFEKSESVEETLNEIINFHENYGKYFQFNTGNKLFDSGFNRNLAFQVLYQTFMSRSFGQTQKGYREIGFREIQDLFASMYYFINIGYQDFVKELLFEWTANVYKMGYANHNFYWVGKQPGLYSDDSLWLLQAYYRYIIYTKDTSVLNEEVPVADGNNEKRAVRETLKAIIQYSACISVGDHGLPLLDLADWNDCLKIASNSIDGATKEKLYYEQLKKTNGKYGDRFMSDYSESVMNAFLLKLAIDHLAEIATLDNDTQLAQQMSELSKEVTDRIQKHAWKENFFARVLINRYKDGSYTYLGAKGDKLSADPNIDGVYFLNSFAWSVLSDVATDEQIAIMVDVIKKHLLTPYGLRLVTPADLNKIANDTATGHYFFGDRENGAVFKHASMMAVAALIKAAKKVKDNELAKEMARIAYFMIDLVLPYKNLENPFQVAGNPRICTQYINTDTGENIGPLLSGTATWLNLNLISLAGIEYTRDGISFNPILREEETQLNFTLKAPKCSYKFSITKPVGFARMESSEYELFVDGQKIDNTVIPMYTDEKEHIVTLKFK
Km [3]: 24 ± 13 mM | kcat [3]: 15 ± 6.3 s⁻¹ | kcat/Km [3]: 630 M⁻¹ s⁻¹

Reference: paper PMC5667895, “Cellodextrin phosphorylase from Ruminiclostridium thermocellum: X-ray crystal structure and substrate specificity analysis” (Carbohydrate Research, 2017)
